Experimental data: patent US6720342B2, “Heterocyclic compounds and their preparation and use” (Novo Nordisk A/S, priority 1996, dated 2004)
Where a name gives a salt, the structure may show the parent alone.

Experiments:
[1] = target: muscarinic acetylcholine receptors; assay: Inhibition of specific binding of 3H-Oxotremorine-M (3H-Oxo) to rat cortex membranes; conditions: rat cortex homogenate, 1.0 nM 3H-Oxotremorine, 30 min at 25° C.
From the text: The pharmacological properties of the compounds of the invention can be illustrated by determining their capability to inhibit the specific binding of ^3H-Oxotremorine-M (^3H-Oxo). Birdsdall N. J. M., Hulme E. C., and Burgen A. S. V. (1980). “The Character of Muscarinic Receptors in Different Regions of the Rat Brain”. Proc. Roy. Soc. London (Series B) 207, 1.
^3H-Oxo labels muscarinic receptor in the CNS (with a preference for agonist domains of the receptors). Three different sites are labelled by ^3H-Oxo. […] Using the present experimental conditions only the high and medium affinity sites are determined.
The inhibitory effects of compounds on ^3H-Oxo binding reflects the affinity for muscarinic acetylcholine receptors.
(§1) All preparations are performed at 0-4° C. unless otherwise indicated. Fresh cortex (0.1-1 g) from male Wistar rats (150-250 g) is homogenized for 5-10 s in 10 ml 20 mM Hepes pH: 7.4, with an Ultra-Turrax homogenizer. The homogenizer is rinsed with 10 ml of buffer and the combined suspension centrifuged for 15 min. at 40,000×g. The pellet is washed three times with buffer. In each step the pellet is homogenized as before in 2×10 ml of buffer and centrifuged for 10 min. at 40,000×g.
The final pellet is homogenized in 20 mM Hepes pH: 7.4 (100 ml per g of original tissue) and used for binding assay. Aliquots of 0.5 ml is added 25 μl of test solution and 25 μl of ^3H-Oxotremorine (1.0 nM, final concentration) mixed and incubated for 30 min. at 25° C. Non-specific binding is determined in triplicate using arecoline (1 μg/ml, final concentration) as the test substance. After incubation samples are added 5 ml of ice-cold buffer and poured directly onto Whatman GF/C glass fiber filters under suction and immediately washed 2 times with 5 ml of ice-cold buffer. The amount of radioactivity on the filters are determined by conventional liquid scintillation counting. Specific binding is total binding minus non specific binding.
Test substances are dissolved in 10 ml water (if necessary heated on a steambath for less than 5 min.) at a concentration of 2.2 mg/ml. 25-75% inhibition of specific binding must be obtained before calculation of IC50.
The test value will be given as IC50 (the concentration (nM) of the test substance which inhibits the specific binding of ^3H-Oxo by 50%).
(§2) IC50=(applied test substance concentration)×(Cx/Co−Cx)nM
(§3) where Co is specific binding in control assays and Cx is the specific binding in the test assay. (The calculations assume normal mass-action kinetics).

[2] = target: T1, muscarinic receptors (M1-site, pirenzepine sensitive site) (Rattus norvegicus, UniProt P08482); assay: Inhibition of 3H-PRZ (pirenzepine, [N-methyl-3H]) binding to rat cerebral cortex membranes; conditions: 1.0 nM 3H-Pirenzepine, 60 min at 20° C.
T1 construct: Fresh cortex (0.1-1 g) from male Wistar rats (150-200 g) is homogenized; from tissue; host or cells: rat (male Wistar) cerebral cortex membranes
T1 sequence (P08482 1-460): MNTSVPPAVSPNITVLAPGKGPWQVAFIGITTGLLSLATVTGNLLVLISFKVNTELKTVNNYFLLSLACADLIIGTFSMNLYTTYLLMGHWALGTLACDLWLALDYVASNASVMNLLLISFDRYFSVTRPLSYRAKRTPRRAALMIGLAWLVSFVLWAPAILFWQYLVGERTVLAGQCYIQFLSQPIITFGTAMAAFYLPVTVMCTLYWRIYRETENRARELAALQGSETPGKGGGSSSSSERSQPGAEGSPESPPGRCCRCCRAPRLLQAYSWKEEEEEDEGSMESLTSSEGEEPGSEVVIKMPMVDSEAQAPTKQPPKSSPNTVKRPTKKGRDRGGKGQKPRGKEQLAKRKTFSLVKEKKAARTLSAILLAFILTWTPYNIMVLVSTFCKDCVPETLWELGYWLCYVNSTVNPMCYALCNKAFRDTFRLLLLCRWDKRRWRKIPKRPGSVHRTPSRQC
Experimental: Furthermore the pharmacological properties of the compounds of the invention can also be illustrated by determining their capability to inhibit ^3H-PRZ (pirenzepine, [N-methyl-^3H]) binding to rat cerebral cortex membranes. Pirenzepine binds selectively to subtype of muscarinic receptors. Historically the type is named the M1-site, whereas pirenzepine sensitive site would be more appropriate. Although selective for M1-sites pirenzepine also interact with M2-sites.
as §1, with “rats (150-200” for “rats (150-250”, “5-10 s.” for “5-10 s”, “with 2×10” for “with 10”, “15 min” for “15 min.”, “in 3×10” for “in 2×10”, “10 min” for “10 min.”
The final pellet is homogenized in 20 mM Hepes pH: 7.4 (100 ml per g of original tissue) and used for binding assay. Aliquots of 0.5 ml is added 20 μl of test solution and 25 μl of ^3H-Pirenzepine (1.0 nM, final conc.), mixed and incubated for 60 min at 20° C. Non-specific binding is determined in triplicate using atropine (1 μg/ml, final conc.) as the test substance. After incubation samples are added 5 ml of ice-cold buffer and poured directly onto Whatman GF/C glass fiber filters under suction and immediately washed 2 times with 5 ml of ice-cold buffer. The amount of radioactivity on the filters are determined by conventional liquid scintillation counting. Specific binding is total binding minus non-specific binding.
Test substances are dissolved in 10 ml water, at a concentration of 0.22 mg/ml. 25-75% inhibition of specific binding must be obtained before calculation of IC50.
The test value will be given as IC50 (the concentration (nM) of the test substance which inhibits the specific binding of ^3H-PRZ by 50%).
as §2, §3

| Compound | melting point [°C] | IC50 [1] [µM] | IC50 [2] [µM] |
| --- | --- | --- | --- |
| COc1cccc(C#CC(C)Oc2nsnc2OC2CN3CCC2C3)c1 (stereo not drawn) (as salt: oxalate) [Compound 17, Endo 3-(3-[4-(3-methoxyphenyl)-3-butyn-2-yloxy]-1,2,5-thiadiazol-4-yloxy)-1-azabicyclo[2.2.1]heptane, oxalate] | 102 to 103 | – | – |
| CCC(C#Cc1cccc(OC)c1)Oc1nsnc1OC1CN2CCC1C2 (stereo not drawn) (as salt: oxalate) [Compound 19, Endo 3-(3-[1-(3-methoxyphenyl)-1-pentyn-3-yloxy]-1,2,5-thiadiazol-4-yloxy)-1-azabicyclo[2.2.1]heptane, oxalate] | 98 to 101 | – | – |
| C(#Cc1cccnc1)COc1nsnc1OC1CN2CCC1C2 (stereo not drawn) (as salt: oxalate) [Compound 23, Endo 3-(3-(3-pyridyl)-2-propyn-1-yloxy)-1,2,5-thiadiazol-4-yloxy)-1-azabicyclo[2.2.1]heptane, dioxalate] | 136 to 139 | – | – |
| C(#Cc1ccccn1)COc1nsnc1OC1CN2CCC1C2 (stereo not drawn) (as salt: oxalate) [Compound 25, Endo 3-(3-(2-pyridyl)-2-propyn-1-yloxy)-1,2,5-thiadiazol-4-yloxy)-1-azabicyclo[2.2.1]heptane, dioxalate] | 158 to 160 | – | – |
| C(#Cc1ccoc1)COc1nsnc1OC1CN2CCC1C2 (stereo not drawn) (as salt: oxalate) [Compound 26, Endo 3-(3-(3-(3-furyl)-2-propyn-1-yloxy)-1,2,5-thiadiazol-4-yloxy)-1-azabicyclo[2.2.1]heptane, oxalate] | 146 to 148 | – | – |
| FC(F)(F)CCCSc1nsnc1OC1CN2CCC1C2 (stereo not drawn) (as salt: oxalate) [Compound 30, Endo 3-(3-(4,4,4-trifluorobutylthio)-1,2,5-thiadiazol-4-yloxy)-1-azabicyclo-[2.2.1]heptane, oxalate] | 114 to 115 | – | – |
| N#CCCSc1nsnc1OC1CN2CCC1C2 (stereo not drawn) (as salt: oxalate) [Compound 32, Endo 3-(3-[2-cyanoethylthio]-1,2,5-thiadiazol-4-yloxy)-1-azabicyclo-[2.2.1]heptane, oxalate] | 168 to 169 | – | – |
| Fc1ccc(CSc2nsnc2OC2CN3CCC2C3)c(F)c1 (stereo not drawn) (as salt: oxalate) [Compound 33, Endo 3-(3-[2,4-difluorobenzylthio]-1,2,5-thiadiazol-4-yloxy)-1-azabicyclo-[2.2.1]heptane, oxalate] | 98 to 100 | – | – |
| FCCSc1nsnc1OC1CN2CCC1C2 (stereo not drawn) (as salt: oxalate) [Compound 34, Endo 3-(3-[2-fluoroethyl-1-thio]-1,2,5-thiadiazol-4-yloxy)-1-azabicyclo-[2.2.1]heptane, oxalate] | 131 to 133 | – | – |
| COc1cccc(C#CC(Oc2nsnc2OC2CN3CCC2C3)C(C)C)c1 (stereo not drawn) (as salt: oxalate) [Compound 39, Endo 3-(3-[1-(3-methoxyphenyl)-4-methyl-1-pentyn-3-yloxy]-1,2,5-thiadiazol-4-yloxy)-1-azabicyclo[2.2.1]heptane, oxalate] | 144 to 147 | – | – |
| C1CC(COc2nsnc2OC2CN3CCC2C3)C1 (stereo not drawn) (as salt: oxalate) [Compound 41, Endo 3-(3-cyclobutylmethyloxy-1,2,5-thiadiazol-4-yloxy)-1-azabicyclo-[2.2.1]heptane, oxalate] | 96 to 99 | – | – |
| CC(C#Cc1ccc(F)cc1)=CCOc1nsnc1OC1CN2CCC1C2 (stereo not drawn) [Compound 22, Endo (E)-3-(3-(5-(4-fluorophenyl)-3-methyl-2-penten-4-yn-1-yloxy)-1,2,5-thiadiazol-4-yloxy)-1-azabicyclo[2.2.1]heptane] | 82 to 84 | 0.19 | 0.05 |

Further lines, results first:

| melting point [°C] | IC50 [1] [µM] | IC50 [2] [µM] | Compound |
| --- | --- | --- | --- |
| 116 to 119 | – | – | FC(F)(F)Oc1ccc(COc2nsnc2OC2CN3CCC2C3)cc1 (stereo not drawn) (as salt: oxalate) [Compound 14, Endo 3-(3-[4-trifluoromethoxybenzyloxy]-1,2,5-thiadiazol-4-yloxy)-1-azabicyclo[2.2.1]heptane, oxalate] |
| 135 to 137 | – | – | FC(F)(F)CCCOc1nsnc1OC1CN2CCC1C2 (stereo not drawn) (as salt: oxalate) [Compound 15, Endo 3-(3-[4,4,4-trifluorobutyl-1-oxy]-1,2,5-thiadiazol-4-yloxy)-1-azabicyclo[2.2.1]heptane, oxalate] |
| 112 to 114 | – | – | Fc1cc(C(F)(F)F)ccc1COc1nsnc1OC1CN2CCC1C2 (stereo not drawn) (as salt: oxalate) [Compound 16, Endo 3-(3-[2-fluoro-4-(trifluoromethyl)-benzyloxy]-1,2,5-thiadiazol-4-yloxy)-1-azabicyclo[2.2.1]heptane, oxalate] |
| 118 to 122 | – | – | Clc1ccc(C#CCOc2nsnc2OC2CN3CCC2C3)cc1 (stereo not drawn) (as salt: oxalate) [Compound 18, Endo 3-(3-[3-(4-chlorophenyl)-2-propynyl-1-oxy]-1,2,5-thiadiazol-4-yloxy)-1-azabicyclo[2.2.1]heptane, oxalate] |
| 131 to 135 | – | – | FC(F)(F)c1cccc(C#CCOc2nsnc2OC2CN3CCC2C3)c1 (stereo not drawn) (as salt: oxalate) [Compound 20, Endo 3-(3-(3-(3-trifluoromethylphenyl)-2-propynyl-1-oxy)-1,2,5-thiadiazol-4-yloxy)-1-azabicyclo[2.2.1]heptane, oxalate] |
| 175 to 177 | – | – | Fc1cccc(C#CCOc2nsnc2OC2CN3CCC2C3)c1 (stereo not drawn) (as salt: oxalate) [Compound 28, Endo 3-(3-(3-(3-fluorophenyl)-2-propyn-1-yloxy)-1,2,5-thiadiazol-4-yloxy-1-azabicyclo[2.2.1]heptane, oxalate] |
| 196 to 197 | – | – | N#Cc1ccc(CSc2nsnc2OC2CN3CCC2C3)cc1 (stereo not drawn) (as salt: oxalate) [Compound 31, Endo 3-(3-[4-cyanobenzylthio]-1,2,5-thiadiazol-4-yloxy)-1-azabicyclo-[2.2.1]heptane, oxalate] |
| 153 to 156 | – | – | FC(F)(F)COc1nsnc1OC1CN2CCC1C2 (stereo not drawn) (as salt: oxalate) [Compound 40, Endo 3-(3-[2,2,2-trifluoroethyl-1-oxy]-1,2,5-thiadiazol-4-yloxy)-1-azabicyclo[2.2.1]heptane, oxalate] |
